The target of this assay is human TRPA1 (Homo sapiens (Human), UniProt O75762). The experiment in a line: hTRPA1 CHO Ca2+ AUC EVO (IC50); FLIPR Tetra block of cinnamaldehyde induced calcium influx. It is filed as cell-based. As to conditions: Table 3; CHO cells expressing TRPA1; 75 uM cinnamaldehyde (~EC80) as agonist. As for the experimental part:
IC50 ([…]) of compounds on the human and rat TRPA1 channels were determined using a FLIPR Tetra instrument. CHO cells expressing TRPA1 were plated into 384-well plates, incubated overnight at 37° C., and loaded with BD calcium indicator dye for 1 hr at 37° C. followed by 15 minutes. at room temperature. The assay buffer was Hank's Balanced Salt Solution (HBSS) containing 20 mM HEPES (pH readjusted to 7.4) along with 0.02% BSA.
Following dye load and plate cool down, compounds were added to the cells using FLIPR Tetra. Plates were then incubated with compounds for 20 minutes at room temperature prior to adding agonist. Following this incubation, ˜EC80 concentration of cinnamaldehyde (75 uM for human TRPA1 and 45 uM for rat TRPA1) was added to active the channels and block of cinnamaldehyde induced calcium influx was measured.
IC50 values were fit with a standard Hill function, keeping the Hill coefficient (n) fixed to 1.5. Fixing the Hill coefficient will generally reduce variability of the IC50 determination. The IC50 values were individually examined to make sure the MIN and MAX points were set correctly prior to validation of the results.
Sequence of human TRPA1 (O75762 whole entry): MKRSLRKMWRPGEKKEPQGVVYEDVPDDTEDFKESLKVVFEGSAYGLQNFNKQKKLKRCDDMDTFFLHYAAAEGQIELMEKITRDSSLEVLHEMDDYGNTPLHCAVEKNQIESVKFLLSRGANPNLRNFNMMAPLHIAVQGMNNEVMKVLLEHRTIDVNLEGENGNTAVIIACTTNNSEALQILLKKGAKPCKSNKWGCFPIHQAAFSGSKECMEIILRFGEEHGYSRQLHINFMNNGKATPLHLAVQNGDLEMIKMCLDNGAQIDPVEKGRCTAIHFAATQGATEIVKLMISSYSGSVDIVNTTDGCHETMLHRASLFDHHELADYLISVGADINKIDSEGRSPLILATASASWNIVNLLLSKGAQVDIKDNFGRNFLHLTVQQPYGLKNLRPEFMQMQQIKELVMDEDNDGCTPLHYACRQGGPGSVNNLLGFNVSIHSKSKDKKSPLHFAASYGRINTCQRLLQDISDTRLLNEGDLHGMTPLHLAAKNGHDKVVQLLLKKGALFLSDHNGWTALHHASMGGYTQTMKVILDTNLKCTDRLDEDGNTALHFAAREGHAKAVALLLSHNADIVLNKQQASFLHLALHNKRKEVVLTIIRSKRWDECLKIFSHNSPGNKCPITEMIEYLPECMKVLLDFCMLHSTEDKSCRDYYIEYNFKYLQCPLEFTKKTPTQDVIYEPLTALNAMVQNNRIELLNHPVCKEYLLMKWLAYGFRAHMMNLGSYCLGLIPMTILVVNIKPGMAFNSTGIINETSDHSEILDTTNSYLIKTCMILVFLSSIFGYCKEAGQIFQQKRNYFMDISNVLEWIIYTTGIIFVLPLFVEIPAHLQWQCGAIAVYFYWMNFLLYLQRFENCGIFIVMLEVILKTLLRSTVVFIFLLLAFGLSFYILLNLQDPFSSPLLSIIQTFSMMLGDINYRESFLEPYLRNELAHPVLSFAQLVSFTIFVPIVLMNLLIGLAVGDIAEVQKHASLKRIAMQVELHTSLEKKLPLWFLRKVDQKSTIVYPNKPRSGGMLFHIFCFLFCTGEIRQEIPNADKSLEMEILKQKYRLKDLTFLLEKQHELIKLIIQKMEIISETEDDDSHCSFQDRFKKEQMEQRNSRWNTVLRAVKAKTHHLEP
Regarding `N#Cc1cnc(-c2cnc(C(F)(F)F)nc2)cc1CNC(=O)[C@@H]1C2CC(C2)N1S(=O)(=O)c1ccc(F)cc1` [compound 8, (2S)-N-[[5-cyano-2-[2-(trifluoromethyl)pyrimidin-5-yl]-4-pyridyl]methyl]-3-(4-fluorophenyl)sulfonyl-3-azabicyclo[2.1.1]hexane-2-carboxamide], the IC50 (as a rule, the concentration needed to halve the response being measured) turned out to be 16 nM.

As to `N#Cc1ccc(-c2cnc(C(F)(F)F)nc2)cc1CNC(=O)[C@@H]1C2CC(C2)N1S(=O)(=O)c1ccc(F)cc1` [compound 9, (2S)-N-[[2-cyano-5-[2-(trifluoromethyl)pyrimidin-5-yl]phenyl]methyl]-3-(4-fluorophenyl)sulfonyl-3-azabicyclo[2.1.1]hexane-2-carboxamide], the IC50 was 17.1 nM. With `O=C(NCc1cc(-c2cnc(C(F)(F)F)nc2)nc(C2CC2)n1)[C@@H]1C2CC(C2)N1S(=O)(=O)c1ccc(F)cc1` [compound 10, (2S)-N-[[2-cyclopropyl-6-[2-(trifluoromethyl)pyrimidin-5-yl]pyrimidin-4-yl]methyl]-3-(4-fluorophenyl)sulfonyl-3-azabicyclo[2.1.1]hexane-2-carboxamide], the IC50 worked out at 2.15 nM. The result for `CC12CC(C1)[C@@H](C(=O)NCc1cc(-c3cnc(C(F)(F)F)nc3)c(F)cn1)N2S(=O)(=O)c1ccc(F)cc1` [compound 12, (2S)-3-(4-fluorophenyl)sulfonyl-N-[[5-fluoro-4-[2-(trifluoromethyl)pyrimidin-5-yl]-2-pyridyl]methyl]-4-methyl-3-azabicyclo[2.1.1]hexane-2-carboxamide] reads 90.2 nM; that for `O=C(NCc1cc(-c2cnc(C(F)(F)F)nc2)ncc1Cl)[C@@H]1C2CC(C2)N1S(=O)(=O)c1ccc(F)c(F)c1` [compound 13, (2S)-N-[[5-chloro-2-[2-(trifluoromethyl)pyrimidin-5-yl]-4-pyridyl]methyl]-3-(3,4-difluorophenyl)sulfonyl-3-azabicyclo[2.1.1]hexane-2-carboxamide], 1.55 nM; that for `O=C(NCc1cc(-c2cnc(C(F)(F)F)nc2)ncc1Br)[C@@H]1C2CC(C2)N1S(=O)(=O)c1ccc(F)cc1` [compound 14, (2S)-N-[[5-bromo-2-[2-(trifluoromethyl)pyrimidin-5-yl]-4-pyridyl]methyl]-3-(4-fluorophenyl)sulfonyl-3-azabicyclo[2.1.1]hexane-2-carboxamide], 3.82 nM.

With `O=C(NCc1cc(-c2cnc(C(F)(F)F)nc2)ncc1OC(F)(F)F)[C@@H]1C2CC(C2)N1S(=O)(=O)c1ccc(F)cc1` [compound 15, (2S)-3-(4-fluorophenyl)sulfonyl-N-[[5-(trifluoromethoxy)-2-[2-(trifluoromethyl)pyrimidin-5-yl]-4-pyridyl]methyl]-3-azabicyclo[2.1.1]hexane-2-carboxamide], the IC50 worked out at 2.77 nM. In the case of `O=C(NCc1cc(-c2cnc(C(F)(F)F)nc2)ccc1F)[C@@H]1C2CC(C2)N1S(=O)(=O)c1ccc(F)cc1` [compound 16, (2S)-3-(4-fluorophenyl)sulfonyl-N-[[2-fluoro-5-[2-(trifluoromethyl)pyrimidin-5-yl]phenyl]methyl]-3-azabicyclo[2.1.1]hexane-2-carboxamide] it was 9.89 nM; in that of `O=C(NCc1cc(-c2ccc(C(F)(F)F)nc2)ccc1F)[C@@H]1C2CC(C2)N1S(=O)(=O)c1ccc(F)cc1` [compound 17, (2S)-3-(4-fluorophenyl)sulfonyl-N-[[2-fluoro-5-[6-(trifluoromethyl)-3-pyridyl]phenyl]methyl]-3-azabicyclo[2.1.1]hexane-2-carboxamide], 6.06 nM. Turning to `Cn1nc(C(F)(F)F)cc1-c1ccc(F)c(CNC(=O)[C@@H]2C3CC(C3)N2S(=O)(=O)c2ccc(F)cc2)c1` [compound 18, (2S)-N-[[2-fluoro-5-[2-methyl-5-(trifluoromethyl)pyrazol-3-yl]phenyl]methyl]-3-(4-fluorophenyl)sulfonyl-3-azabicyclo[2.1.1]hexane-2-carboxamide], the IC50 came out at 15.7 nM. The result for `O=C(NCc1cc(F)cc(-c2cnc(C(F)(F)F)nc2)c1)[C@@H]1C2CC(C2)N1S(=O)(=O)c1ccc(F)cc1` [compound 19, (2S)-3-(4-fluorophenyl)sulfonyl-N-[[3-fluoro-5-[2-(trifluoromethyl)pyrimidin-5-yl]phenyl]methyl]-3-azabicyclo[2.1.1]hexane-2-carboxamide] reads 8.97 nM.

For `O=C(NCc1cc(F)cc(-c2ccc(C(F)(F)F)nc2)c1)[C@@H]1C2CC(C2)N1S(=O)(=O)c1ccc(F)cc1` [compound 20, (2S)-3-(4-fluorophenyl)sulfonyl-N-[[3-fluoro-5-[6-(trifluoromethyl)-3-pyridyl]phenyl]methyl]-3-azabicyclo[2.1.1]hexane-2-carboxamide], the IC50 worked out at 6.11 nM. In the case of `Cn1nc(C(F)(F)F)cc1-c1cc(F)cc(CNC(=O)[C@@H]2C3CC(C3)N2S(=O)(=O)c2ccc(F)cc2)c1` [compound 21, (2S)-N-[[3-fluoro-5-[2-methyl-5-(trifluoromethyl)pyrazol-3-yl]phenyl]methyl]-3-(4-fluorophenyl)sulfonyl-3-azabicyclo[2.1.1]hexane-2-carboxamide] it was 27.6 nM. The result for `O=C(NCc1cn(-c2cnc(C(F)(F)F)nc2)nc1C(F)(F)F)[C@@H]1C2CC(C2)N1S(=O)(=O)c1ccc(F)cc1` [compound 29, (2S)-3-(4-fluorophenyl)sulfonyl-N-[[3-(trifluoromethyl)-1-[2-(trifluoromethyl)pyrimidin-5-yl]pyrazol-4-yl]methyl]-3-azabicyclo[2.1.1]hexane-2-carboxamide] reads 4.84 nM.

Regarding `O=C(NCc1cc(-c2cnc(C(F)(F)F)nc2)nc(C(F)(F)F)n1)[C@@H]1C2CC(C2)N1S(=O)(=O)c1ccc(F)cc1` [compound 30, (2S)-3-(4-fluorophenyl)sulfonyl-N-[[2-(trifluoromethyl)-6-[2-(trifluoromethyl)pyrimidin-5-yl]pyrimidin-4-yl]methyl]-3-azabicyclo[2.1.1]hexane-2-carboxamide], the IC50 was found to be 1.18 nM. For `O=C(NCc1cc(-c2cnc(C(F)(F)F)nc2)ncc1C(F)(F)F)[C@@H]1C2CC(C2)N1S(=O)(=O)c1cc2cc(F)ccc2o1` [compound 31, (2S)-3-(5-fluorobenzofuran-2-yl)sulfonyl-N-[[5-(trifluoromethyl)-2-[2-(trifluoromethyl)pyrimidin-5-yl]-4-pyridyl]methyl]-3-azabicyclo[2.1.1]hexane-2-carboxamide], the IC50 stood at 1.85 nM. In the case of `O=C(NCc1cc(-c2cnc(C(F)(F)F)nc2)cc(C2CC2)n1)[C@@H]1C2CC(C2)N1S(=O)(=O)c1ccc(F)cc1` [compound 32, (2S)-N-[[6-cyclopropyl-4-[2-(trifluoromethyl)pyrimidin-5-yl]-2-pyridyl]methyl]-3-(4-fluorophenyl)sulfonyl-3-azabicyclo[2.1.1]hexane-2-carboxamide] it was 7.24 nM; in that of `O=C(NCc1cc(-c2cnc(C(F)(F)F)nc2)nc(C2CC2)c1)[C@@H]1C2CC(C2)N1S(=O)(=O)c1ccc(F)cc1` [compound 33, (2S)-N-[[2-cyclopropyl-6-[2-(trifluoromethyl)pyrimidin-5-yl]-4-pyridyl]methyl]-3-(4-fluorophenyl)sulfonyl-3-azabicyclo[2.1.1]hexane-2-carboxamide], 3.55 nM.

As to `COc1nn(-c2cnc(C(F)(F)F)nc2)cc1CNC(=O)[C@@H]1C2CC(C2)N1S(=O)(=O)c1ccc(F)cc1` [compound 34, (2S)-3-(4-fluorophenyl)sulfonyl-N-[[3-methoxy-1-[2-(trifluoromethyl)pyrimidin-5-yl]pyrazol-4-yl]methyl]-3-azabicyclo[2.1.1]hexane-2-carboxamide], the IC50 was 19.1 nM. In the case of `O=C(NCc1cc(-c2cnc(C(F)(F)F)nc2)nc(OCC(F)(F)F)n1)[C@@H]1C2CC(C2)N1S(=O)(=O)c1ccc(F)cc1` [compound 35, (2S)-3-(4-fluorophenyl)sulfonyl-N-[[2-(2,2,2-trifluoroethoxy)-6-[2-(trifluoromethyl)pyrimidin-5-yl]pyrimidin-4-yl]methyl]-3-azabicyclo[2.1.1]hexane-2-carboxamide], the IC50 amounted to 4.24 nM.

For the origin of these results see patent publication US10597383B2, “Bicyclic proline compounds” (Genentech, Inc., priority 2016, dated 2020).
